According to patent publication US9682938B2, “Pyrazolone derivatives as nitroxyl donors” (Cardioxyl Pharmaceuticals, Inc., priority 2014, dated 2017):

Key:
[1] = In vitro plasma stability, dog plasma; type: in vitro ADME; settings: male, pH 7.4, 5 μM, 37° C., sampling 0-360 minutes, read-out: T1/2 Dog
Method in brief: (§1)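 Pooled plasma at pH 7.4 with sodium heparin or citrate anticoagulant; compound at 5 μM, 37° C with shaking, triplicate samples at 0–360 min. Quenched in acetonitrile/1% formic acid with internal standard; LC-MS/MS peak-area ratios without standard curve; T1/2 from percent remaining.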

normal beagle dogs = experiment: Pharmacodynamic activity: systolic blood pressure decrease in telemetered dogs after oral dose; type: in vivo, dog; settings: beagle dogs (n=3), single oral dose 30 mg/kg in PEG300, first 2 hr post-dose relative to baseline SBP
Experimental: The effect of certain compounds from Table 1 on blood pressure in freely moving telemetered normal beagle dogs (n=3) after single oral doses was evaluated. The animals were surgically implanted with a pressure transducer equipped telemetry transmitter. The transmitter assembly was secured internally and a fluid-filled catheter was placed into the abdominal aorta to allow for collection of cardiovascular data. To evaluate cardiovascular effects, 3 dogs were given single oral doses of a compound from Table 1 (100% PEG300 in gelatin capsules) at a concentration of 100 mg/mL and at doses of 30 mg/kg. Systemic blood pressure and heart rate were evaluated continuously for 2 hr before and for 24 hr after dosing (results not shown). To compare the pharmacodynamic activity for all tested compounds, the mean systolic blood pressure (SBP) decrease during the first 2 hr post-dose was determined relative to the baseline SBP (30-120 min pre-dose) (Table 6).

[2] = In vitro plasma stability, rat plasma; type: in vitro ADME; settings: male, pH 7.4, 5 μM, 37° C., sampling 0-360 minutes, read-out: T1/2 Rat
Method in brief: as §1

[3] = In vitro plasma stability, human plasma; type: in vitro ADME; settings: male, pH 7.4, 5 μM, 37° C., sampling 0-360 minutes, read-out: T1/2 Human
Method in brief: as §1

half-life at 5 μM [1] | half-life at 5 μM [2] | half-life at 5 μM [3] | Structure (SMILES) | Mean SBP decrease (normal beagle dogs)
69 min | 38 min | 31 min | CN1N=C(c2ccc(C(F)(F)F)cc2)C(C)(NO)C1=O (centres unmarked) [Compound 4, 4-(hydroxyamino)-2,4-dimethyl-5-(4-(trifluoromethyl)phenyl)-2,4-dihydro-3H-pyrazol-3-one] | 6 mmHg
25 min | 28 min | 36 min | CN1N=C(c2ccc(S(=O)(=O)C(F)(F)F)cc2)C(C)(NO)C1=O (centres unmarked) [Compound 34, 4-(hydroxyamino)-2,4-dimethyl-5-(4-((trifluoromethyl)sulfonyl)phenyl)-2,4-dihydro-3H-pyrazol-3-one] | 18 mmHg
48 min | 39 min | 39 min | CN1N=C(c2ccc(S(C)(=O)=O)c(F)c2)C(C)(NO)C1=O (centres unmarked) [Compound 40, 5-(3-fluoro-4-(methylsulfonyl)phenyl)-4-(hydroxyamino)-2,4-dimethyl-2,4-dihydro-3H-pyrazol-3-one] | 15 mmHg
49 min | 53 min | 49 min | CN1N=C(c2cccc(S(C)(=O)=O)c2)C(C)(NO)C1=O (centres unmarked) [Compound 48, 4-(hydroxyamino)-2,4-dimethyl-5-(3-(methylsulfonyl)phenyl)-2,4-dihydro-3H-pyrazol-3-one] | 17 mmHg
39 min | 70 min | 52 min | CN1N=C(c2ccc(S(=O)(=O)N(C)C)cc2)C(C)(NO)C1=O (centres unmarked) [Compound 49, 4-(4-(hydroxyamino)-1,4-dimethyl-5-oxo-4,5-dihydro-1H-pyrazol-3-yl)-N,N-dimethylbenzenesulfonamide] | 18 mmHg
47 min | 113 min | 49 min | CN1N=C(c2ccc(S(C)(=N)=O)cc2)C(C)(NO)C1=O (centres unmarked) [Compound 75, 4-(Hydroxyamino)-3-{4-[imino(methyl)oxo-λ^6-sulfanyl]phenyl}-1,4-dimethyl-4,5-dihydro-1H-pyrazol-5-one] | 12 mmHg
42 min | 75 min | 43 min | CC(C)S(=O)(=O)c1ccc(C2=NN(C)C(=O)C2(C)NO)cc1 (centres unmarked) [Compound 78, 4-(Hydroxyamino)-1,4-dimethyl-3-[4-(propane-2-sulfonyl)phenyl]-4,5-dihydro-1H-pyrazol-5-one] | 27 mmHg
49 min | 80 min | 46 min | CN1N=C(c2ccc(S(=O)(=O)N3CCOCC3)cc2)C(C)(NO)C1=O (centres unmarked) [Compound 80, 4-(Hydroxyamino)-1,4-dimethyl-3-[4-(morpholine-4-sulfonyl)phenyl]-4,5-dihydro-1H-pyrazol-5-one] | 13 mmHg
100 min | 161 min | 89 min | CN(C)C(=O)c1ccc(C2=NN(C)C(=O)C2(C)NO)cc1 (centres unmarked) [Compound 84, 4-[4-(Hydroxyamino)-1,4-dimethyl-5-oxo-4,5-dihydro-1H-pyrazol-3-yl]-N,N-dimethylbenzamide] | 15 mmHg
21 min | 19 min | 10 min | CCO/N=C(\C)C1(NO)C(=O)N(C)N=C1C(C)(C)C (centres unmarked) [Compound 112, 3-tert-Butyl-4-[1-(ethoxyimino)ethyl]-4-(hydroxyamino)-1-methyl-4,5-dihydro-1H-pyrazol-5-one] | 21 mmHg
75 min | 53 min | 30 min | CN1N=C(C(C)(C)C)C(NO)(c2ccccc2)C1=O (centres unmarked) [Compound 113, 3-tert-Butyl-4-(hydroxyamino)-1-methyl-4-phenyl-4,5-dihydro-1H-pyrazol-5-one] | 18 mmHg
4 min | 8 min | 2 min | CO/N=C(\C)C1(NO)C(=O)N(C)N=C1c1ccc(S(=O)(=O)N(C)C)cc1 (centres unmarked) [Compound 121, 4-[4-(Hydroxyamino)-4-[1-(methoxyimino)ethyl]-1-methyl-5-oxo-4,5-dihydro-1H-pyrazol-3-yl]-N,N-dimethylbenzene-1-sulfonamide] | –
35 min | 34 min | 31 min | CN1N=C(C(C)(C)C)C(NO)(c2ccc(S(=O)(=O)N(C)C)cc2)C1=O (centres unmarked) [Compound 122, 4-[3-tert-Butyl-4-(hydroxyamino)-1-methyl-5-oxo-4,5-dihydro-1H-pyrazol-4-yl]-N,N-dimethylbenzene-1-sulfonamide] | –
6 min | 11 min | 6 min | CO/N=C(\C)C1(NO)C(=O)N(C)N=C1c1ccc(C(=O)N(C)C)cc1 (centres unmarked) [Compound 123, 4-[4-(Hydroxyamino)-4-[1-(methoxyimino)ethyl]-1-methyl-5-oxo-4,5-dihydro-1H-pyrazol-3-yl]-N,N-dimethylbenzamide] | –
45 min | 44 min | 31 min | CN(C)C(=O)c1ccc(C2(NO)C(=O)N(C)N=C2C(C)(C)C)cc1 (centres unmarked) [Compound 124, 4-[3-tert-Butyl-4-(hydroxyamino)-1-methyl-5-oxo-4,5-dihydro-1H-pyrazol-4-yl]-N,N-dimethylbenzamide] | –
13 min | 15 min | 10 min | CCOC1=NN(C)C(=O)C1(NO)/C(C)=N/OCc1ccccc1 (centres unmarked) [Compound 125, 4-[1-[(Benzyloxy)imino]ethyl]-3-ethoxy-4-(hydroxyamino)-1-methyl-4,5-dihydro-1H-pyrazol-5-one] | –
30 min | 18 min | 18 min | CCOC1=NN(C)C(=O)C1(NO)/C(C)=N/OC (centres unmarked) [Compound 126, 3-Ethoxy-4-(hydroxyamino)-4-[1-(methoxyimino)ethyl]-1-methyl-4,5-dihydro-1H-pyrazol-5-one] | –
> 480 min | > 480 min | > 480 min | CCOC1=NN(c2ccccc2)C(=O)C1(C)NO (centres unmarked) [Compound 127, 3-Ethoxy-4-(hydroxyamino)-4-methyl-1-phenyl-4,5-dihydro-1H-pyrazol-5-one] | –
< 1 min | < 1 min | < 1 min | CO/N=C(\C)C1(NO)C(=O)N(c2ccccc2)N=C1[S+]([O-])c1ccccc1 (centres unmarked) [Compound 130, 3-(Benzenesulfinyl)-4-(hydroxyamino)4[1-(methoxyimino)ethyl]-1-phenyl-4,5-dihydro1H-pyrazol-5-one] | –
7 min | 24 min | 15 min | CO/N=C(\C)C1(NO)C(=O)NN=C1C(C)(C)C (centres unmarked) [Compound 131, 3-tert-Butyl-4-(hydroxyamino)-4-[1-(methoxyimino)ethyl]-4,5-dihydro-1H-pyrazol-5-one] | –
< 1 min | < 1 min | < 1 min | CC1=NN(C)C(=O)C1(NO)c1noc(-c2ccccc2)n1 (centres unmarked) [Compound 132, 4-(Hydroxyamino)-1,3-dimethyl-4-(5-phenyl-1,2,4-oxadiazol-3-yl)-4,5-dihydro-1H-pyrazol-5-one] | –
126 min | 116 min | 110 min | CC1(NO)C(=O)NN=C1c1ccc(S(C)(=O)=O)cc1 (centres unmarked) [Compound 133, 4-(Hydroxyamino)-3-(4-methanesulfonylphenyl)-4-methyl-4,5-dihydro-1H-pyrazol-5-one] | –
26 min | 20 min | 17 min | CCO/N=C(\C)C1(NO)C(=O)NN=C1C(C)(C)C (centres unmarked) [Compound 134, 3-tert-Butyl-4-[1-(ethoxyimino)ethyl]-4-(hydroxyamino)-4,5-dihydro-1H-pyrazol-5-one] | –
